Data on seven compounds can be found in ChEMBL document CHEMBL6092162, “Identification of novel and potent triazoles targeting CYP51 for antifungal: Design, synthesis, and biological study” (Eur J Med Chem, 2024).

Molecules are shown by their SMILES. ≈ marks a conversion by molar mass, not a printed value.

The test system of one test is Candida albicans. The experiment in a line: Antifungal activity against Candida albicans SC5314 assessed as inhibition of fungal growth by CLSI M27-A3 guidelines based method.
Settings: not given
It is filed as functional.
Regarding `CN(Cc1ccc(N2CCN(Cc3ccccc3I)CC2)cc1)CC(O)(Cn1cncn1)c1ccc(F)cc1F` (stereo unspecified), the MIC80 came out at 0.013 µg/mL (≈ 0.0197 µM).

As to `CN(Cc1ccc(N2CCN(Cc3ccccc3Cl)CC2)cc1)CC(O)(Cn1cncn1)c1ccc(F)cc1F` (stereo unspecified), the MIC80 was 0.025 µg/mL (≈ 0.0441 µM).

With `CN(Cc1ccc(N2CCN(Cc3ccc(N)cc3)CC2)cc1)CC(O)(Cn1cncn1)c1ccc(F)cc1F` (stereo unspecified), the MIC80 came to 1.6 µg/mL (≈ 2.92 µM).

Turning to `CN(Cc1ccc(N2CCN(Cc3c(Br)cccc3Br)CC2)cc1)CC(O)(Cn1cncn1)c1ccc(F)cc1F` (stereo unspecified), the MIC80 came to 0.013 µg/mL (≈ 0.0188 µM).

For `C#Cc1ccc(CN2CCN(c3ccc(CN(C)CC(O)(Cn4cncn4)c4ccc(F)cc4F)cc3)CC2)cc1` (stereo unspecified), the MIC80 was found to be 0.1 µg/mL (≈ 0.18 µM).

Turning to `CN(Cc1ccc(N2CCN(Cc3ccc(F)cc3)CC2)cc1)CC(O)(Cn1cncn1)c1ccc(F)cc1F` (stereo unspecified), the MIC80 came to 0.1 µg/mL (≈ 0.182 µM).

In the case of `CN(Cc1ccc(N2CCN(Cc3cc(Br)ccc3Br)CC2)cc1)CC(O)(Cn1cncn1)c1ccc(F)cc1F` (stereo unspecified), the MIC80 amounted to 0.013 µg/mL (≈ 0.0188 µM).

For another test, the system named is Candida albicans. The experiment in a line: Antifungal activity against Candida albicans GIM 2.194 assessed as inhibition of fungal growth by CLSI M27-A3 guidelines based method. The test is classed as functional.
Settings: not given
For the compound `CN(Cc1ccc(N2CCN(Cc3ccccc3I)CC2)cc1)CC(O)(Cn1cncn1)c1ccc(F)cc1F` (stereo unspecified), the MIC80 is 0.013 µg/mL (≈ 0.0197 µM).

On to `CN(Cc1ccc(N2CCN(Cc3ccccc3Cl)CC2)cc1)CC(O)(Cn1cncn1)c1ccc(F)cc1F` (stereo unspecified), for which the MIC80 came to 0.006 µg/mL (≈ 0.0106 µM).

For `CN(Cc1ccc(N2CCN(Cc3ccc(N)cc3)CC2)cc1)CC(O)(Cn1cncn1)c1ccc(F)cc1F` (stereo unspecified), the MIC80 is 3.2 µg/mL (≈ 5.84 µM).

With `CN(Cc1ccc(N2CCN(Cc3c(Br)cccc3Br)CC2)cc1)CC(O)(Cn1cncn1)c1ccc(F)cc1F` (stereo unspecified), the MIC80 was found to be 0.006 µg/mL (≈ 0.00869 µM).

In the case of `C#Cc1ccc(CN2CCN(c3ccc(CN(C)CC(O)(Cn4cncn4)c4ccc(F)cc4F)cc3)CC2)cc1` (stereo unspecified), the MIC80 was 0.2 µg/mL (≈ 0.359 µM).

In the case of `CN(Cc1ccc(N2CCN(Cc3ccc(F)cc3)CC2)cc1)CC(O)(Cn1cncn1)c1ccc(F)cc1F` (stereo unspecified), the MIC80 came out at 0.05 µg/mL (≈ 0.0908 µM).

In the case of `CN(Cc1ccc(N2CCN(Cc3cc(Br)ccc3Br)CC2)cc1)CC(O)(Cn1cncn1)c1ccc(F)cc1F` (stereo unspecified), the MIC80 came out at 0.025 µg/mL (≈ 0.0362 µM).

A further test concerns Candida tropicalis. The experiment in a line: Antifungal activity against Candida tropicalis GIM 2.183 assessed as inhibition of fungal growth by CLSI M27-A3 guidelines based method. The test is classed as functional.
Settings: not given
With `CN(Cc1ccc(N2CCN(Cc3ccccc3I)CC2)cc1)CC(O)(Cn1cncn1)c1ccc(F)cc1F` (stereo unspecified), the MIC80 was 0.013 µg/mL (≈ 0.0197 µM).

For `CN(Cc1ccc(N2CCN(Cc3ccccc3Cl)CC2)cc1)CC(O)(Cn1cncn1)c1ccc(F)cc1F` (stereo unspecified), the MIC80 turned out to be 0.013 µg/mL (≈ 0.0229 µM).

On to `CN(Cc1ccc(N2CCN(Cc3ccc(N)cc3)CC2)cc1)CC(O)(Cn1cncn1)c1ccc(F)cc1F` (stereo unspecified), for which the MIC80 was found to be 1.6 µg/mL (≈ 2.92 µM).

With `CN(Cc1ccc(N2CCN(Cc3c(Br)cccc3Br)CC2)cc1)CC(O)(Cn1cncn1)c1ccc(F)cc1F` (stereo unspecified), the MIC80 was found to be 0.006 µg/mL (≈ 0.00869 µM).

As for `C#Cc1ccc(CN2CCN(c3ccc(CN(C)CC(O)(Cn4cncn4)c4ccc(F)cc4F)cc3)CC2)cc1` (stereo unspecified), the MIC80 amounted to 0.1 µg/mL (≈ 0.18 µM).

In the case of `CN(Cc1ccc(N2CCN(Cc3ccc(F)cc3)CC2)cc1)CC(O)(Cn1cncn1)c1ccc(F)cc1F` (stereo unspecified), the MIC80 was determined as 0.1 µg/mL (≈ 0.182 µM).

In the case of `CN(Cc1ccc(N2CCN(Cc3cc(Br)ccc3Br)CC2)cc1)CC(O)(Cn1cncn1)c1ccc(F)cc1F` (stereo unspecified), the MIC80 is 0.006 µg/mL (≈ 0.00869 µM).

In a further test the test system is Candida parapsilosis. The experiment in a line: Antifungal activity against Candida parapsilosis GIM 2.190 assessed as inhibition of fungal growth by CLSI M27-A3 guidelines based method. Conditions: Lodderomyces parapsilosis. It is filed as functional.
As for `CN(Cc1ccc(N2CCN(Cc3ccccc3I)CC2)cc1)CC(O)(Cn1cncn1)c1ccc(F)cc1F` (stereo unspecified), the MIC80 turned out to be 0.025 µg/mL (≈ 0.038 µM).

Turning to `CN(Cc1ccc(N2CCN(Cc3ccccc3Cl)CC2)cc1)CC(O)(Cn1cncn1)c1ccc(F)cc1F` (stereo unspecified), the MIC80 turned out to be 0.006 µg/mL (≈ 0.0106 µM).

With `CN(Cc1ccc(N2CCN(Cc3ccc(N)cc3)CC2)cc1)CC(O)(Cn1cncn1)c1ccc(F)cc1F` (stereo unspecified), the MIC80 came to 3.2 µg/mL (≈ 5.84 µM).

On to `CN(Cc1ccc(N2CCN(Cc3c(Br)cccc3Br)CC2)cc1)CC(O)(Cn1cncn1)c1ccc(F)cc1F` (stereo unspecified), for which the MIC80 was determined as 0.006 µg/mL (≈ 0.00869 µM).

As to `C#Cc1ccc(CN2CCN(c3ccc(CN(C)CC(O)(Cn4cncn4)c4ccc(F)cc4F)cc3)CC2)cc1` (stereo unspecified), the MIC80 was 0.4 µg/mL (≈ 0.719 µM).

Consider `CN(Cc1ccc(N2CCN(Cc3ccc(F)cc3)CC2)cc1)CC(O)(Cn1cncn1)c1ccc(F)cc1F` (stereo unspecified), for which the MIC80 is 0.2 µg/mL (≈ 0.363 µM).

In the case of `CN(Cc1ccc(N2CCN(Cc3cc(Br)ccc3Br)CC2)cc1)CC(O)(Cn1cncn1)c1ccc(F)cc1F` (stereo unspecified), the MIC80 turned out to be 0.006 µg/mL (≈ 0.00869 µM).

The subject of the next test is Nakaseomyces glabratus. Put plainly: Antifungal activity against Candida glabrata assessed as inhibition of fungal growth by CLSI M27-A3 guidelines based method. The test is classed as functional.
Settings: not given
As for `CN(Cc1ccc(N2CCN(Cc3ccccc3I)CC2)cc1)CC(O)(Cn1cncn1)c1ccc(F)cc1F` (stereo unspecified), the MIC80 amounted to 0.2 µg/mL (≈ 0.304 µM).

In the case of `CN(Cc1ccc(N2CCN(Cc3ccccc3Cl)CC2)cc1)CC(O)(Cn1cncn1)c1ccc(F)cc1F` (stereo unspecified), the MIC80 worked out at 0.2 µg/mL (≈ 0.353 µM).

As to `CN(Cc1ccc(N2CCN(Cc3ccc(N)cc3)CC2)cc1)CC(O)(Cn1cncn1)c1ccc(F)cc1F` (stereo unspecified), the MIC80 was 3.2 µg/mL (≈ 5.84 µM).

`CN(Cc1ccc(N2CCN(Cc3c(Br)cccc3Br)CC2)cc1)CC(O)(Cn1cncn1)c1ccc(F)cc1F` (stereo unspecified): the MIC80 was 0.1 µg/mL (≈ 0.145 µM).

In the case of `C#Cc1ccc(CN2CCN(c3ccc(CN(C)CC(O)(Cn4cncn4)c4ccc(F)cc4F)cc3)CC2)cc1` (stereo unspecified), the MIC80 was determined as 3.2 µg/mL (≈ 5.75 µM).

As to `CN(Cc1ccc(N2CCN(Cc3ccc(F)cc3)CC2)cc1)CC(O)(Cn1cncn1)c1ccc(F)cc1F` (stereo unspecified), the MIC80 is 0.8 µg/mL (≈ 1.45 µM).

In the case of `CN(Cc1ccc(N2CCN(Cc3cc(Br)ccc3Br)CC2)cc1)CC(O)(Cn1cncn1)c1ccc(F)cc1F` (stereo unspecified), the MIC80 was found to be 0.1 µg/mL (≈ 0.145 µM).

A further test concerns Pichia kudriavzevii. Put plainly: Antifungal activity against Candida krusei GIM 2.1 assessed as inhibition of fungal growth by CLSI M27-A3 guidelines based method.
Settings: not given
It is filed as functional.
For the compound `CN(Cc1ccc(N2CCN(Cc3ccccc3I)CC2)cc1)CC(O)(Cn1cncn1)c1ccc(F)cc1F` (stereo unspecified), the MIC80 was 0.1 µg/mL (≈ 0.152 µM).

Turning to `CN(Cc1ccc(N2CCN(Cc3ccccc3Cl)CC2)cc1)CC(O)(Cn1cncn1)c1ccc(F)cc1F` (stereo unspecified), the MIC80 was 0.1 µg/mL (≈ 0.176 µM).

Turning to `CN(Cc1ccc(N2CCN(Cc3ccc(N)cc3)CC2)cc1)CC(O)(Cn1cncn1)c1ccc(F)cc1F` (stereo unspecified), the MIC80 stood at 3.2 µg/mL (≈ 5.84 µM).

In the case of `CN(Cc1ccc(N2CCN(Cc3c(Br)cccc3Br)CC2)cc1)CC(O)(Cn1cncn1)c1ccc(F)cc1F` (stereo unspecified), the MIC80 amounted to 0.1 µg/mL (≈ 0.145 µM).

As to `C#Cc1ccc(CN2CCN(c3ccc(CN(C)CC(O)(Cn4cncn4)c4ccc(F)cc4F)cc3)CC2)cc1` (stereo unspecified), the MIC80 amounted to 3.2 µg/mL (≈ 5.75 µM).

As to `CN(Cc1ccc(N2CCN(Cc3ccc(F)cc3)CC2)cc1)CC(O)(Cn1cncn1)c1ccc(F)cc1F` (stereo unspecified), the MIC80 came out at 0.2 µg/mL (≈ 0.363 µM).

Take `CN(Cc1ccc(N2CCN(Cc3cc(Br)ccc3Br)CC2)cc1)CC(O)(Cn1cncn1)c1ccc(F)cc1F` (stereo unspecified): the MIC80 was found to be 0.1 µg/mL (≈ 0.145 µM).

The subject of another test is Cryptococcus neoformans. The experiment in a line: Antifungal activity against Cryptococcus neoformans CGMCC 2.3161 assessed as inhibition of fungal growth by CLSI M27-A3 guidelines based method. It is filed as functional.
Settings: not given
As for `CN(Cc1ccc(N2CCN(Cc3ccccc3Cl)CC2)cc1)CC(O)(Cn1cncn1)c1ccc(F)cc1F` (stereo unspecified), the MIC80 is 0.1 µg/mL (≈ 0.176 µM).

For `CN(Cc1ccc(N2CCN(Cc3ccc(N)cc3)CC2)cc1)CC(O)(Cn1cncn1)c1ccc(F)cc1F` (stereo unspecified), the MIC80 was 3.2 µg/mL (≈ 5.84 µM).

Consider `C#Cc1ccc(CN2CCN(c3ccc(CN(C)CC(O)(Cn4cncn4)c4ccc(F)cc4F)cc3)CC2)cc1` (stereo unspecified), for which the MIC80 worked out at 3.2 µg/mL (≈ 5.75 µM).

Turning to `CN(Cc1ccc(N2CCN(Cc3ccc(F)cc3)CC2)cc1)CC(O)(Cn1cncn1)c1ccc(F)cc1F` (stereo unspecified), the MIC80 came to 0.8 µg/mL (≈ 1.45 µM).

One may read the MIC80 as an inhibitory concentration at the 80% level, which refers to growth in some studies and to a panel of isolates in others.
